Data set [1] is described as follows: acute oral toxicity test, LD50 by improved karber method. As to conditions: for LD50 at 7 days: both, Konmin, mouse, in vivo, po.
The test system of a further data set is Haemophilus parasuis. Description: in vitro susceptibility, MIC by mini broth dilution. The format is cell-based. In a few lines:
(§1)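 NCCLS-based mini broth dilution; inoculum from twice-streaked 35° C/20 h cultures, 1:200 in broth; compound two-fold series in DMSO, 11 steps, duplicates.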
On the technique in general: In broth dilution the organism is exposed to a series of concentrations in liquid medium.

The test system of data set [2] is Streptococcus equines CVCC556. The data set is described as above. It is filed as cell-based. To be noted: strain CVCC556. The method in brief: as §1
In data set [3] the test system is Pasteurella multocida CVCC399. Described as above. It is filed as cell-based. As to conditions: strain CVCC399. The method in brief: as §1
The subject of data set [4] is Actinobacillus pleuropneumoniae CVCC262. The data set is described as above. The format is cell-based. As to conditions: strain CVCC262. The method in brief:
as §1

For data set [5], the system named is Staphylococcus aureus CVCC26003. The data set is described as above. It is filed as cell-based. To be noted: strain CVCC26003. The method in brief: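 S. aureus CVCC26003 was revived and subcultured twice, 20 h each at 35° C, on solid medium, then diluted 1:200 in CAMHB liquid medium. Compounds received an 11-step two-fold DMSO dilution in parallel duplicate rows. MIC was read by mini broth dilution per NCCLS guidance.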

Data set [6] concerns Streptococcus pneumoniae CMCC 31203. As to the kind of experiment: in vivo antibacterial test, survival of infected mice. On the set-up: species or system BALB/c mice. To be noted: mice infected i.p. with Streptococcus pneumoniae; 5 mg per kg subcutaneous for 3 consecutive days; observed until the seventh day.

In the case of `CCCN1C[C@H](C)[C@@H](O)[C@](C)(O)[C@@H](CC)OC(=O)[C@H](C)[C@@H](O[C@H]2C[C@@](C)(OC)[C@@H](O)[C@H](C)O2)[C@H](C)[C@@H](O[C@@H]2O[C@H](C)C[C@H](N(C)C)[C@H]2O)[C@](C)(O)C[C@H]1C` [Gamithromycin, reference compound], the LD50 in data set [1] (per os, gavaged once, in 0.2% sodium carboxymethylcellulose, observed 7 days) came out at 2165.2 mg/kg. The “MIC values, Haemophilus parasuis” value against Haemophilus parasuis was found to be 0.25 ug/mi. The “MIC values, Streptococcus equines CVCC556” value in data set [2] turned out to be 0.5 ug/mi. In data set [3], the “MIC values, Pasteurella multocida CVCC399” value came out at 0.25 ug/mi. For the same compound, the “MIC values, Actinobacillus pleuropneumoniae CVCC262” value in data set [4] is given as 0.25 ug/mi. For the same compound, the “MIC values, Staphylococcus aureus CVCC26003” value in data set [5] is on record as 0.25 ug/mi.

`CCCCNC[C@]1(O)[C@H](C)OC(O[C@@H]2[C@@H](C)[C@@H](O[C@@H]3O[C@H](C)C[C@H](N(C)C)[C@H]3O)[C@](C)(O)C[C@@H](C)NC[C@@H](C)[C@H](O)[C@](C)(O)[C@H](CC)OC(=O)[C@@H]2C)C[C@@]1(C)OC` (stereo partly drawn) [syzx-2, (2R,3S,4R,5S,8R,10R,11R,12S,13S,14R)-13-[(2,6-dideoxy-3-C-methyl-3-O-methyl-4-C-[(butylamino)methyl]-α-L-ribopyranosyl)oxy]-2-ethyl-3,4,10-trihydroxy-3,5,8,10,12,14-hexamethyl-11-[[3,4,6-trideoxy-3-(dimethylamino)-β-D-xylo-hexopyranosy]oxy]-1-oxa-7-azacyclopentadecan-15-one]: the median lethal dose (LD50) at 7 days in data set [1] was 2550 mg/kg. For the same compound, in data set [6], the “Animal survival rate (surviving/total animals)” value is listed as 8/10.

Compound `CC[C@@H]1OC(=O)[C@H](C)[C@H](OC2C[C@@](C)(OC)[C@](O)(CN(CC)CC)[C@H](C)O2)[C@@H](C)[C@@H](O[C@@H]2O[C@H](C)C[C@H](N(C)C)[C@H]2O)[C@](C)(O)C[C@@H](C)NC[C@@H](C)[C@H](O)[C@]1(C)O` (stereo partly drawn) [syzx-3, (2R,3S,4R,5S,8R,10R,11R,12S,13S,14R)-13-[(2,6-dideoxy-3-C-methyl-3-O-methyl-4-C-[(diethylamino)methyl]-α-L-ribopyranosyl)oxy]-2-ethyl-3,4,10-trihydroxy-3,5,8,10,12,14-hexamethyl-11-[[3,4,6-trideoxy-3-(dimethylamino)-β-D-xylo-hexopyranosy]oxy]-1-oxa-7-azacyclopentadecan-15-one] gave an LD50 at 7 days in data set [1] of 2490 mg/kg. For the same compound, the “Animal survival rate (surviving/total animals)” value in data set [6] is 8/10.

In data set [1], `CC[C@@H]1OC(=O)[C@H](C)[C@H](OC2C[C@@](C)(OC)[C@](O)(CN3CCOCC3)[C@H](C)O2)[C@@H](C)[C@@H](O[C@@H]2O[C@H](C)C[C@H](N(C)C)[C@H]2O)[C@](C)(O)C[C@@H](C)NC[C@@H](C)[C@H](O)[C@]1(C)O` (stereo partly drawn) [syzx-5, (2R,3S,4R,5S,8R,10R,11R,12S,13S,14R)-13-[(2,6-dideoxy-3-C-methyl-3-O-methyl-4-C-[(morpholinyl)methyl]-α-L-ribopyranosyl)oxy]-2-ethyl-3,4,10-trihydroxy-3,5,8,10,12,14-hexamethyl-11-[[3,4,6-trideoxy-3-(dimethylamino)-β-D-xylo-hexopyranosy]oxy]-1-oxa-7-azacyclopentadecan-15-one] returned an LD50 at 7 days of 2730 mg/kg. For the same compound, in data set [6], the “Animal survival rate (surviving/total animals)” value is 7/10.

`CC[C@@H]1OC(=O)[C@H](C)[C@H](OC2C[C@@](C)(OC)[C@](O)(CNC3CC3)[C@H](C)O2)[C@@H](C)[C@@H](O[C@@H]2O[C@H](C)C[C@H](N(C)C)[C@H]2O)[C@](C)(O)C[C@@H](C)NC[C@@H](C)[C@H](O)[C@]1(C)O` (stereo partly drawn) [syzx-6, (2R,3S,4R,5S,8R,10R,11R,12S,13S,14R)-13-[(2,6-dideoxy-3-C-methyl-3-O-methyl-4-C-[(cyclopropylamino)methyl]-α-L-ribopyranosyl)oxy]-2-ethyl-3,4,10-trihydroxy-3,5,8,10,12,14-hexamethyl-11-[[3,4,6-trideoxy-3-(dimethylamino)-β-D-xylo-hexopyranosy]oxy]-1-oxa-7-azacyclopentadecan-15-one] registered an LD50 at 7 days in data set [1] of 2610 mg/kg. In data set [6], the “Animal survival rate (surviving/total animals)” value is 8/10.

For `CCNC[C@]1(O)[C@H](C)OC(O[C@@H]2[C@@H](C)[C@@H](O[C@@H]3O[C@H](C)C[C@H](N(C)C)[C@H]3O)[C@](C)(O)C[C@@H](C)NC[C@@H](C)[C@H](O)[C@](C)(O)[C@H](CC)OC(=O)[C@@H]2C)C[C@@]1(C)OC` (stereo partly drawn) [syzx-10, (2R,3S,4R,5S,8R,10R,11R,12S,13S,14R)-13-[(2,6-dideoxy-3-C-methyl-3-O-methyl-4-C-[(ethylamino)methyl]-α-L-ribopyranosyl)oxy]-2-ethyl-3,4,10-trihydroxy-3,5,8,10,12,14-hexamethyl-11-[[3,4,6-trideoxy-3-(dimethylamino)-β-D-xylo-hexopyranosy]oxy]-1-oxa-7-azacyclopentadecan-15-one], the LD50 at 7 days in data set [1] is 2810 mg/kg. Moreover, the “Animal survival rate (surviving/total animals)” value in data set [6] is listed as 9/10.

Consider `CC[C@@H]1OC(=O)[C@H](C)[C@H](OC2C[C@@](C)(OC)[C@](O)(CNC(C)C)[C@H](C)O2)[C@@H](C)[C@@H](O[C@@H]2O[C@H](C)C[C@H](N(C)C)[C@H]2O)[C@](C)(O)C[C@@H](C)NC[C@@H](C)[C@H](O)[C@]1(C)O` (stereo partly drawn) [syzx-11, (2R,3S,4R,5S,8R,10R,11R,12S,13S,14R)-13-[(2,6-dideoxy-3-C-methyl-3-O-methyl-4-C-[(isopropylamino)methyl]-α-L-ribopyranosyl)oxy]-2-ethyl-3,4,10-trihydroxy-3,5,8,10,12,14-hexamethyl-11-[[3,4,6-trideoxy-3-(dimethylamino)-β-D-xylo-hexopyranosy]oxy]-1-oxa-7-azacyclopentadecan-15-one], for which, in data set [1], the median lethal dose (LD50) at 7 days is 4200 mg/kg. The “Animal survival rate (surviving/total animals)” value in data set [6] was 8/10.

For `CC[C@@H]1OC(=O)[C@H](C)[C@H](OC2C[C@@](C)(OC)[C@](O)(CNC3CCCC3)[C@H](C)O2)[C@@H](C)[C@@H](O[C@@H]2O[C@H](C)C[C@H](N(C)C)[C@H]2O)[C@](C)(O)C[C@@H](C)NC[C@@H](C)[C@H](O)[C@]1(C)O` (stereo partly drawn) [syzx-30, (2R,3S,4R,5S,8R,10R,11R,12S,13S,14R)-13-[(2,6-dideoxy-3-C-methyl-3-O-methyl-4-C-[(cyclopentylamino)-methyl]-α-L-ribopyranosyl)oxy]-2-ethyl-3,4,10-trihydroxy-3,5,8,10,12,14-hexamethyl-11-[[3,4,6-trideoxy-3-(dimethylamino)-β-D-xylo-hexopyranosy]oxy]-1-oxa-7-azacyclopentadecan-15-one], the “Animal survival rate (surviving/total animals)” value in data set [6] is 8/10.

Consider `CC[C@@H]1OC(=O)[C@H](C)[C@H](OC2C[C@@](C)(OC)[C@](O)(CNCc3cccc(OC)c3)[C@H](C)O2)[C@@H](C)[C@@H](O[C@@H]2O[C@H](C)C[C@H](N(C)C)[C@H]2O)[C@](C)(O)C[C@@H](C)NC[C@@H](C)[C@H](O)[C@]1(C)O` (stereo partly drawn) [syzx-35, (2R,3S,4R,5S,8R,10R,11R,12S,13S,14R)-13-[(2,6-dideoxy-3-C-methyl-3-O-methyl-4-C-[[3-methoxybenzyl-amino]-methyl]-α-L-ribopyranosyl)oxy]-2-ethyl-3,4,10-trihydroxy-3,5,8,10,12,14-hexamethyl-11-[[3,4,6-trideoxy-3-(dimethylamino)-β-D-xylo-hexopyranosy]oxy]-1-oxa-7-azacyclopentadecan-15-one], for which, in data set [6], the Animal survival rate was 70% and the “Animal survival rate (surviving/total animals)” value is 7/10.

On to `CCCCCNC[C@]1(O)[C@H](C)OC(O[C@@H]2[C@@H](C)[C@@H](O[C@@H]3O[C@H](C)C[C@H](N(C)C)[C@H]3O)[C@](C)(O)C[C@@H](C)NC[C@@H](C)[C@H](O)[C@](C)(O)[C@H](CC)OC(=O)[C@@H]2C)C[C@@]1(C)OC` (stereo partly drawn) [syzx-47, (2R,3S,4R,5S,8R,10R,11R,12S,13S,14R)-13-[(2,6-dideoxy-3-C-methyl-3-O-methyl-4-C-[[n-pentyl-amino]-methyl]-α-L-ribopyranosyl)oxy]-2-ethyl-3,4,10-trihydroxy-3,5,8,10,12,14-hexamethyl-11-[[3,4,6-trideoxy-3-(dimethylamino)-β-D-xylo-hexopyranosy]oxy]-1-oxa-7-azacyclopentadecan-15-one], for which the “Animal survival rate (surviving/total animals)” value in data set [6] was 9/10.

In the case of `CC[C@@H]1OC(=O)[C@H](C)[C@H](OC2C[C@@](C)(OC)[C@](O)(CNCc3cnc(C)cn3)[C@H](C)O2)[C@@H](C)[C@@H](O[C@@H]2O[C@H](C)C[C@H](N(C)C)[C@H]2O)[C@](C)(O)C[C@@H](C)NC[C@@H](C)[C@H](O)[C@]1(C)O` (stereo partly drawn) [syzx-65, (2R,3S,4R,5S,8R,10R,11R,12S,13S,14R)-13-[(2,6-dideoxy-3-C-methyl-3-O-methyl-4-C-{[(5-methyl-pyrazin-2-yl-methyl)-amino]-methyl}-α-L-ribopyranosyl)oxy]-2-ethyl-3,4,10-trihydroxy-3,5,8,10,12,14-hexamethyl-11-[[3,4,6-trideoxy-3-(dimethylamino)-β-D-xylo-hexopyranosy]oxy]-1-oxa-7-azacyclopentadecan-15-one], the “Animal survival rate (surviving/total animals)” value in data set [6] is 9/10.

As to `CC[C@@H]1OC(=O)[C@H](C)[C@H](OC2C[C@@](C)(OC)[C@](O)(CNCCCOC)[C@H](C)O2)[C@@H](C)[C@@H](O[C@@H]2O[C@H](C)C[C@H](N(C)C)[C@H]2O)[C@](C)(O)C[C@@H](C)NC[C@@H](C)[C@H](O)[C@]1(C)O` (stereo partly shown) [syzx-66], the “Animal survival rate (surviving/total animals)” value in data set [6] is 8/10.

Regarding `CC[C@@H]1OC(=O)[C@H](C)[C@H](OC2C[C@@](C)(OC)[C@](O)(CNCC3CCCCC3)[C@H](C)O2)[C@@H](C)[C@@H](O[C@@H]2O[C@H](C)C[C@H](N(C)C)[C@H]2O)[C@](C)(O)C[C@@H](C)NC[C@@H](C)[C@H](O)[C@]1(C)O` (stereo partly shown) [syzx-67], the “Animal survival rate (surviving/total animals)” value in data set [6] is 8/10.

Usually LD50 stands for the dose expected to kill half of the subjects tested. Higher therefore signals a less toxic substance.
